Data as given in the supplement of paper PMC10307832.

Key:
Assay in all cases: relative viability (nuclei count vs DMSO), 5 days (fraction); higher = more cells survive
[1] = compound: CCOC(=O)CCNc1cc(N2CCc3ccccc3CC2)nc(-c2ccccn2)n1 [GSK-J4] + Cc1cc(Nc2cc(N3CCN(C)CC3)nc(Sc3ccc(NC(=O)C4CC4)cc3)n2)n[nH]1 [Tozasertib] (partner 0.1 µM)
Method in brief: (§1)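 Lung cancer cell lines in 1536-well plates were dosed by pin tool the day after seeding, either with one drug alone or with a fixed anchor-drug dose plus five library-drug doses (not always all listed) in √10 steps. After 5 days, cells were fixed and their nuclei stained in one step (final 0.05% Triton X-100, 1% formaldehyde, 1 ug/ml Hoechst), then counted on 4× images. Relative viability is the nuclei count in treated wells divided by that in vehicle wells. Values are medians of duplicate plates.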

[2] = compound: CN1CCC(CC1)OC2=CC(=C(C=C2)NC3=NC=C4C(=N3)N(C(=O)N4C)C5CCCC5)OC [AZ3146] + CC(C)C[C@H](NC(=O)[C@H](Cc1ccccc1)NC(=O)c1cnccn1)B(O)O [Bortezomib] (partner 0.002 µM)
Method in brief: as §1

[3] = compound: CN1CCC(CC1)OC2=CC(=C(C=C2)NC3=NC=C4C(=N3)N(C(=O)N4C)C5CCCC5)OC [AZ3146] + C[C@]1(O)C[C@@H](c2nc(-c3ccc4ccc(-c5ccccc5)nc4c3)c3c(N)nccn32)C1 [Linsitinib] (partner 1 µM)
Method in brief: as §1

[4] = compound: CN1CCC(CC1)OC2=CC(=C(C=C2)NC3=NC=C4C(=N3)N(C(=O)N4C)C5CCCC5)OC [AZ3146] + COc1cc2c(Oc3ccc(NC(=O)C4(C(=O)Nc5ccc(F)cc5)CC4)cc3F)ccnc2cc1OCCCN1CCOCC1 [Foretinib] (partner 0.25 µM)
Method in brief: as §1

Cell Line | relative viability ([1]; first compound 0.5 µM) | relative viability ([1]; first compound 1.581 µM) | relative viability ([1]; first compound 5 µM) | relative viability ([1]; first compound 15.81 µM) | relative viability ([1]; first compound 50 µM) | relative viability ([2]; first compound 0.08 µM) | relative viability ([2]; first compound 0.253 µM) | relative viability ([2]; first compound 0.8 µM) | relative viability ([2]; first compound 2.53 µM) | relative viability ([2]; first compound 8 µM) | relative viability ([3]; first compound 0.08 µM) | relative viability ([3]; first compound 0.253 µM) | relative viability ([3]; first compound 0.8 µM) | relative viability ([3]; first compound 2.53 µM) | relative viability ([3]; first compound 8 µM) | relative viability ([4]; first compound 0.08 µM) | relative viability ([4]; first compound 0.253 µM) | relative viability ([4]; first compound 0.8 µM) | relative viability ([4]; first compound 2.53 µM) | relative viability ([4]; first compound 8 µM)
201T | 0.801 | 0.971 | 0.96 | 0.901 | 0.836 | 1.1 | 1.07 | 1.11 | 1.16 | 1.12 | 0.876 | 1.06 | 1.05 | 1.05 | 1.06 | 0.945 | 1.02 | 1.08 | 1.13 | 1.06
A549 | – | – | – | – | – | – | – | – | – | – | 0.653 | 0.653 | 0.593 | 0.571 | 0.51 | 1.08 | 0.952 | 0.743 | 0.177 | 0.063
A-427 | 0.233 | – | 0.22 | 0.18 | 0.157 | 0.995 | 1.06 | 0.94 | 1.07 | 0.875 | 1.08 | 1.07 | 1.04 | 1.19 | 1.12 | 1.02 | 1.07 | 1 | 0.989 | 1.11
ABC-1 | 0.188 | 0.166 | 0.171 | 0.166 | 0.188 | 0.28 | 0.398 | 0.247 | 0.239 | 0.356 | 0.83 | 0.71 | 0.861 | 0.855 | 0.977 | 0.98 | 1.01 | 1.29 | 1.1 | 0.709
BEN | 0.514 | 0.41 | 0.609 | 0.375 | 0.492 | – | 0.588 | 0.752 | 0.762 | 0.726 | – | 0.919 | 0.703 | 1.01 | 0.843 | – | 0.447 | 0.587 | 0.715 | 0.698
CAL-12T | 0.304 | 0.324 | 0.336 | 0.264 | 0.357 | 1.28 | – | 0.897 | 1.08 | 0.644 | 0.867 | 0.756 | 0.824 | 0.885 | 0.932 | 1.08 | 1.12 | 1.04 | 0.98 | 0.788
COR-L23 | 0.171 | 0.211 | – | 0.158 | 0.136 | 0.912 | 1.17 | 0.991 | 0.984 | 0.886 | 0.771 | 1.04 | 0.852 | 1.1 | 0.884 | 0.979 | 1.08 | 0.877 | 0.987 | 0.787
COR-L 105 | 0.311 | 0.371 | 0.36 | 0.394 | 0.387 | 0.677 | 0.896 | 0.78 | 0.554 | 0.294 | 0.963 | 1.2 | 0.891 | 0.888 | 0.787 | 1.11 | 1.04 | 0.857 | 0.687 | 0.455
Calu-6 | – | – | – | – | – | 0.975 | 1.08 | 0.999 | 0.938 | 0.57 | 0.925 | 0.925 | 0.928 | 0.948 | 0.971 | 0.792 | 0.996 | 0.891 | 0.792 | 0.48
